Test results from paper PMC12123458, “Unraveling Small Molecule-Mediated Sirtuin 3 Activation at a Distinct Binding Site for Cardioprotective Therapies” (ACS Central Science, 2025).

Columns and labels:
SIRT3 = molecular target: T1, SIRT3 (Homo sapiens, UniProt Q9NTG7); assay: Fluor de Lys (FDL) fluorimetric SIRT3 deacetylase activity assay; type: biochemical; details: 100 µM, FDL deacetylation assay, compared to the control group, mean ± SD; for activity at 100 µM: 0.5 h, read-out: % effect @ 100 µM of SIRT3
T1 construct: purchased Enzo Life Sciences BML-AK557-0001
T1 sequence (Q9NTG7 1-399): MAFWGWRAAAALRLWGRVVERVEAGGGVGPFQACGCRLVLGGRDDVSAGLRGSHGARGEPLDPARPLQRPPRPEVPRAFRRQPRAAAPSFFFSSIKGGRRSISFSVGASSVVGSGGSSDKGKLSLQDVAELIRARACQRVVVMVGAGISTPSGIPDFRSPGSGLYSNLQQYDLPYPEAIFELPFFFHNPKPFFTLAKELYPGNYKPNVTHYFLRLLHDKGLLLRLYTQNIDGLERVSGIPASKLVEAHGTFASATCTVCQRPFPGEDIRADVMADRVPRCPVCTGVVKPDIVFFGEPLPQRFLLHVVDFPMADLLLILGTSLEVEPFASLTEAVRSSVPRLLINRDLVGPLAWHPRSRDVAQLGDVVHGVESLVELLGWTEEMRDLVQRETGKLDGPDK
Protocol: The SIRT3 activity was assessed using the Enzo Life Sciences kit (BML-AK557-0001) per the protocol provided. A 10 μM fluoro-acetylated p53 peptide and 500 μM NAD^+ were added to SIRT3 assay buffer, incubated with test compounds and 0.5 μg recombinant SIRT3 at 37 °C for 30 min. In the mass spectrometry (MS) assay, 5 μM hSirt3 was reacted with 0.25 mM peptide and 1.25 mM NAD^+, with or without 10 μM SKLB-11A in 2% DMSO, at 37 °C. Controls included 2% DMSO without SKLB-11A. The reaction was halted at defined intervals using 5 mM nicotinamide, and the mixture then underwent filtration and subjected to nano LC-MS/MS analysis. Acetylated Peptide: MnSOD-K122 ([…]-Ac).

H9c2 cells = assay: Dox-induced cardiotoxicity model in H9c2 cells, MTT cell viability; type: cell-based; details: for viability at 10 µM: Rattus norvegicus, H9c2, 10 µM pretreatment 24 h, then 1 µM Dox 24 h, MTT, Model (Dox) = Dox alone, read-out: Cardiomyocyte survival rate at 10 uM (%); for effect of co-treatment on the cardioprotective efficacy of SKLB-11A: Dox-treated H9c2 cells, cell viability
Protocol: H9c2 cardiomyocytes were cultured in high-glucose DMEM supplemented with 10% FBS and 1% penicillin/streptomycin under a 5% CO2 atmosphere at 37 °C. Cells were seeded at 5 × 10^4 cells/mL in 96-well plates and treated with 1 μM Dox for 24 h. After Dox treatment, cell viability was quantified via MTT assay; 3-(4,5-dimethythiazol-2-yl)-2,5-diphenyltetrazolium bromide (MTT, 5 mg/mL) was applied for 4 h, followed by DMSO dissolution of formazan crystals. Additionally, cells were pretreated with 10 μM SKLB-11A for 24 h prior to 1 μM Dox exposure, and viability was similarly assessed using MTT.

[1] = system: LC3, p62, PINK1, Parkin in H9c2 cells; assay: Autophagy/mitophagy markers in H9c2 cells (Western blot, immunofluorescence); type: cell-based; details: 24 h
Protocol: Proteomic analysis was conducted on H9c2 cells and murine cardiac tissues. Protein lysates were resolved via SDS-PAGE and transferred onto PVDF membranes. […] After washing, membranes were probed with secondary antibodies for 1 h at room temperature. Detection was facilitated by an ECL kit, with densitometry performed using ImageJ software to quantify protein expression, normalized against controls. The antibodies employed included: anti-SIRT3 (2627, Cell Signaling Technology), anti-acetylated lysine (9441, CST), anti-Ac.K68-MnSOD2 (ab137037, Abcam), anti-Ac.K122-MnSOD2 (ab214675, Abcam), anti-MnSOD2 (13141, CST), anti-LC3B (3868, CST), anti-p62 (8025, CST), anti-PINK1 (6946, CST), anti-Parkin (4211, CST), and anti-β-actin (ab8226, Abcam).

Row | Structure (SMILES) | activity at 100 µM (SIRT3) [%] | viability at 10 µM (H9c2 cells) [%] | % effect @ 100 µM of SIRT3 (SIRT3) | effect of co-treatment on the cardioprotective efficacy of SKLB-11A (H9c2 cells) | LC3-II and p62 (autophagic flux) [1]
1 | CCCCCNC(=O)c1c(N)n(Cc2ccccc2)c2nc3ccccc3nc12 [SKLB-11N, 2-amino-1-benzyl-N-pentyl-1H-pyrrolo[2,3-b]quinoxaline-3-carboxamide] | 119 ± 3.3 | 66.3 ± 4.52 |  |  | 
2 | CCCCCNC(=O)c1c(N)n(Cc2ccc(Br)cc2)c2nc3ccccc3nc12 [SKLB-11O, 2-amino-1-(4-bromobenzyl)-N-pentyl-1H-pyrrolo[2,3-b]quinoxaline-3-carboxamide] | 126 ± 1.32 | 69.2 ± 1.35 |  |  | 
3 | COc1ccc(-n2c(N)c(C#N)c3nc4ccccc4nc32)cc1 [SKLB-4E, 2-amino-1-(4-methoxyphenyl)-1H-pyrrolo[2,3-b]quinoxaline-3-carbonitrile] | 110.4 ± 0.95 | 65.9 ± 2.41 |  |  | 
4 | CCCCCNC(=O)c1c(N)n(Cc2cccc(Cl)c2)c2nc3ccccc3nc12 [SKLB-11Q, 2-amino-1-(3-chlorobenzyl)-N-pentyl-1H-pyrrolo[2,3-b]quinoxaline-3-carboxamide] | 118 ± 0.63 | 66.5 ± 1.19 |  |  | 
5 | N#Cc1c(N)n(Cc2ccc(Br)cc2)c2nc3ccccc3nc12 [SKLB-4C, 2-amino-1-(4-bromobenzyl)-1H-pyrrolo[2,3-b]quinoxaline-3-carbonitrile] | 126.4 ± 0.81 | 68.25 ± 0.51 |  |  | 
6 | Nc1c(C(=O)Oc2ccccc2)c2nc3ccccc3nc2n1Cc1ccc(F)cc1 [SKLB-11E, Phenyl 2-amino-1-(4-fluorobenzyl)-1H-pyrrolo[2,3-b]quinoxaline-3-carboxylate] | 130.6 ± 1.27 | 71.3 ± 4.34 |  |  | 
7 | CC(C)(C)OC(=O)c1c(N)n(Cc2ccccc2)c2nc3ccccc3nc12 [SKLB-11F, Tert-butyl 2-amino-1-benzyl-1H-pyrrolo[2,3-b]quinoxaline-3-carboxylate] | 122.7 ± 0.59 | 69 ± 1.22 |  |  | 
8 | CC(C)(C)OC(=O)Nc1c(C(=O)O)c2nc3ccccc3nc2n1Cc1ccc(F)cc1 [SKLB-7A, 2-((tert-butoxycarbonyl)amino)-1-(4-fluorobenzyl)-1H-pyrrolo[2,3-b]quinoxaline-3-carboxylic acid] | 109.3 ± 0.71 | 66.1 ± 0.8 | significantly reduced SIRT3 deacetylation activity |  | 
9 | CC(C)(C)OC(=O)c1c(N)n(Cc2ccc(F)cc2)c2nc3ccccc3nc12 [SKLB-11D, Tert-butyl 2-amino-1-(4-fluorobenzyl)-1H-pyrrolo[2,3-b]quinoxaline-3-carboxylate] | 148 ± 3.07 | 74.3 ± 1.7 | maintained or enhanced the activity |  | 
10 | CCCCNC(=O)c1c(N)n(Cc2ccc(F)cc2)c2nc3ccccc3nc12 [SKLB-11L, 2-amino-N-butyl-1-(4-fluorobenzyl)-1H-pyrrolo[2,3-b]quinoxaline-3-carboxamide] | 123.6 ± 0.95 | 67.1 ± 1.6 |  |  | 
11 | COc1cccc(-n2c(N)c(C#N)c3nc4ccccc4nc32)c1 [SKLB-4D, 2-amino-1-(3-methoxyphenyl)-1H-pyrrolo[2,3-b]quinoxaline-3-carbonitrile] | 103.1 ± 1.02 | 64.4 ± 3.28 |  |  | 
12 | COc1ccc(Cn2c(N)c(C#N)c3nc4ccccc4nc32)cc1 [SKLB-4A, 2-amino-1-(4-methoxybenzyl)-1H-pyrrolo[2,3-b]quinoxaline-3-carbonitrile] | 118.2 ± 0.79 | 65.3 ± 4.54 |  |  | 
13 | Cc1ccc(Cn2c(N)c(C(=O)OC(C)(C)C)c3nc4ccccc4nc32)cc1 [SKLB-11G, Tert-butyl 2-amino-1-(4-methylbenzyl)-1H-pyrrolo[2,3-b]quinoxaline-3-carboxylate] | 107 ± 1.42 | 63.93 ± 0.62 |  |  | 
14 | CC(C)OC(=O)c1c(N)n(Cc2ccc(F)cc2)c2nc3ccccc3nc12 [SKLB-11C, Isopropyl 2-amino-1-(4-fluorobenzyl)-1H-pyrrolo[2,3-b]quinoxaline-3-carboxylate] | 124.2 ± 0.84 | 70.2 ± 1.89 |  |  | 
15 | Nc1c(C(=O)O)c2nc3ccccc3nc2n1Cc1ccc(F)cc1 [SKLB-5A, 2-amino-1-(4-fluorobenzyl)-1H-pyrrolo[2,3-b]quinoxaline-3-carboxylic acid] | 154 ± 2.69 | 75.5 ± 2.69 |  |  | 
16 | COc1cccc2c1C(=O)c1c(O)c3c(c(O)c1C2=O)C[C@@](O)(C(=O)CO)C[C@@H]3O[C@H]1C[C@H](N)[C@H](O)[C@H](C)O1 [Dox, doxorubicin, reference compound] |  | 61.93 ± 0.51 |  |  | 
17 | N#Cc1c(N)n(Cc2ccc(F)cc2)c2nc3ccccc3nc12 [SKLB-4B, 2-amino-1-(4-fluorobenzyl)-1H-pyrrolo[2,3-b]quinoxaline-3-carbonitrile] | 130.6 ± 0.36 | 70.8 ± 3.03 | significant increase in SIRT3 deacetylation activity |  | 
18 | CCNC(=O)c1c(N)n(Cc2ccc(F)cc2)c2nc3ccccc3nc12 [SKLB-11K, 2-amino-N-ethyl-1-(4-fluorobenzyl)-1H-pyrrolo[2,3-b]quinoxaline-3-carboxamide] | 144.3 ± 0.82 | 71.5 ± 2.09 |  |  | 
19 | CCOC(=O)c1c(N)n(Cc2ccc(F)cc2)c2nc3ccccc3nc12 [SKLB-11B, Ethyl 2-amino-1-(4-fluorobenzyl)-1H-pyrrolo[2,3-b]quinoxaline-3-carboxylate] | 167.4 ± 1.13 | 77 ± 1.96 | maintained or enhanced the activity |  | 
20 | Nc1c(C(=O)NC2CC2)c2nc3ccccc3nc2n1Cc1ccc(F)cc1 [SKLB-11M, 2-amino-N-cyclopropyl-1-(4-fluorobenzyl)-1H-pyrrolo[2,3-b]quinoxaline-3-carboxamide] | 104 ± 1.75 | 64.5 ± 0.87 |  |  | 
21 | N#Cc1c(N)n(-c2ccccc2F)c2nc3ccccc3nc12 [SKLB-4F, 2-amino-1-(2-fluorophenyl)-1H-pyrrolo[2,3-b]quinoxaline-3-carbonitrile] | 106 ± 1.96 | 65.17 ± 0.38 |  |  | 
22 | NC(=O)c1c(N)n(Cc2ccc(F)cc2)c2nc3ccccc3nc12 [SKLB-11I, 2-amino-1-(4-fluorobenzyl)-1H-pyrrolo[2,3-b]quinoxaline-3-carboxamide] | 135 ± 2.43 | 70.8 ± 3.76 |  |  | 
23 | COc1cc(-n2c(=S)[nH]c3ccccc3c2=O)c(Cl)cc1Cl [Mdivi-1, reference compound] |  |  |  | attenuated the cardioprotective effects of SKLB-11A | 
24 | COc1ccc(Cn2c(N)c(C(=O)OC(C)(C)C)c3nc4ccccc4nc32)cc1 [SKLB-11H, Tert-butyl 2-amino-1-(4-methoxybenzyl)-1H-pyrrolo[2,3-b]quinoxaline-3-carboxylate] | 125.7 ± 0.91 | 68.7 ± 4.61 |  |  | 
25 | c1cncc(-c2cn[nH]n2)c1 [3-TYP, reference compound] |  |  |  | attenuated the efficacy of SKLB-11A | reduced LC3-II localization
26 | CCCCCNC(=O)c1c(N)n(Cc2cccc(Br)c2)c2nc3ccccc3nc12 [SKLB-11P, 2-amino-1-(3-bromobenzyl)-N-pentyl-1H-pyrrolo[2,3-b]quinoxaline-3-carboxamide] | 116.2 ± 0.57 | 65.8 ± 4.18 |  |  | 
27 | CNC(=O)c1c(N)n(Cc2ccc(F)cc2)c2nc3ccccc3nc12 [SKLB-11J, 2-amino-1-(4-fluorobenzyl)-N-methyl-1H-pyrrolo[2,3-b]quinoxaline-3-carboxamide] | 150 ± 1.75 | 72.4 ± 2.21 |  |  | 
